{"source": "ChEMBL document CHEMBL5104151", "about": "“Synthesis of new pyrazolo[4,3-a]phenanthridine Pim-1 inhibitors and evaluation of their cytotoxic activity towards the MOLM-13 acute myeloid leukemia cell line” (Bioorg Med Chem Lett, 2022)", "key": {"[1]": {"target": "T1, Serine/threonine-protein kinase pim-1 (Homo sapiens, UniProt P11309)", "assay": "Inhibition of full-length human Pim-1 using RSRHSSYPAG as substrate incubated in presence of [gamma33P]ATP and assessed as residual activity at 10 uM relative to control"}, "MOLM-13 [2]": {"tested_on": "MOLM-13", "assay": "Antiproliferative activity against human MOLM-13 cells measured after 24 hrs by WST-1 assay", "type": "functional, cell-based", "settings": "MOLM-13, 24 h"}, "[3]": {"target": "T1, Serine/threonine-protein kinase pim-1", "assay": "Inhibition of full-length human Pim-1 using RSRHSSYPAG as substrate incubated in presence of [gamma33P]ATP and assessed as residual activity at 1 uM relative to control"}, "MOLM-13 [4]": {"tested_on": "MOLM-13", "assay": "Induction of apoptosis in human MOLM-13 cells incubated for 72 hrs and assessed as presence of apoptotic nuclei", "type": "functional, cell-based", "settings": "MOLM-13, 72 h"}, "MOLM-13 [5]": {"tested_on": "MOLM-13", "assay": "Antiproliferative activity against human MOLM-13 cells measured after 72 hrs by WST-1 assay", "type": "functional, cell-based", "settings": "MOLM-13, 72 h"}, "[6]": {"target": "T1, Serine/threonine-protein kinase pim-1", "assay": "Inhibition of full-length human Pim-1 using RSRHSSYPAG as substrate incubated in presence of [gamma33P]ATP"}, "[7]": {"assay": "Cytotoxicity against rat NRK cells measured after 72 hrs by WST-1 assay", "type": "toxicity, cell-based"}}}
{"compound": "O=C(O)c1cc2[nH]ncc2c2c1ncc1ccccc12", "values": [{"measurement": "Activity", "setting": "[1]", "result": 29, "unit": "%"}, {"measurement": "EC50", "setting": "MOLM-13 [2]", "result": "> 250", "unit": "µM"}, {"measurement": "Activity", "setting": "[3]", "result": 77, "unit": "%"}, {"measurement": "EC50", "setting": "MOLM-13 [4]", "result": "> 250", "unit": "µM"}, {"measurement": "EC50", "setting": "MOLM-13 [5]", "result": 62, "unit": "µM"}]}
{"compound": "FC(F)(F)c1cc2[nH]ncc2c2c1ncc1ccccc12", "values": [{"measurement": "Activity", "setting": "[1]", "result": 18, "unit": "%"}, {"measurement": "Activity", "setting": "[3]", "result": 43, "unit": "%"}, {"measurement": "EC50", "setting": "MOLM-13 [4]", "result": "> 250", "unit": "µM"}, {"measurement": "EC50", "setting": "MOLM-13 [5]", "result": 1.2, "unit": "µM"}]}
{"compound": "NC(=O)c1cc2[nH]ncc2c2c1ncc1ccccc12", "values": [{"measurement": "Activity", "setting": "[1]", "result": 7, "unit": "%"}, {"measurement": "Activity", "setting": "[3]", "result": 23, "unit": "%"}, {"measurement": "EC50", "setting": "MOLM-13 [4]", "result": "> 250", "unit": "µM"}, {"measurement": "EC50", "setting": "MOLM-13 [5]", "result": 2.5, "unit": "µM"}, {"measurement": "IC50", "setting": "[6]", "result": 0.125, "unit": "µM"}]}
{"compound": "C=Cc1n[nH]c2cc([N+](=O)[O-])c3ncc4ccccc4c3c12", "values": [{"measurement": "Activity", "setting": "[1]", "result": 1.5, "unit": "%"}, {"measurement": "EC50", "setting": "MOLM-13 [2]", "result": 2.9, "unit": "µM"}, {"measurement": "Activity", "setting": "[3]", "result": 5.3, "unit": "%"}, {"measurement": "EC50 at 72 h", "setting": "[7]", "result": 24, "unit": "µM"}, {"measurement": "EC50", "setting": "MOLM-13 [4]", "result": 4.6, "unit": "µM"}, {"measurement": "EC50", "setting": "MOLM-13 [5]", "result": 1.7, "unit": "µM"}, {"measurement": "IC50", "setting": "[6]", "result": 0.031, "unit": "µM"}]}
{"compound": "O=[N+]([O-])c1cc2[nH]ncc2c2c1ncc1ccccc12", "values": [{"measurement": "EC50", "setting": "MOLM-13 [2]", "result": 0.8, "unit": "µM"}, {"measurement": "EC50 at 72 h", "setting": "[7]", "result": "> 30", "unit": "µM"}, {"measurement": "EC50", "setting": "MOLM-13 [4]", "result": 3.7, "unit": "µM"}, {"measurement": "EC50", "setting": "MOLM-13 [5]", "result": 0.2, "unit": "µM"}]}
{"compound": "O=[N+]([O-])c1cc2[nH]nc(I)c2c2c1ncc1ccccc12", "values": [{"measurement": "Activity", "setting": "[1]", "result": 1.4, "unit": "%"}, {"measurement": "EC50", "setting": "MOLM-13 [2]", "result": 3.5, "unit": "µM"}, {"measurement": "Activity", "setting": "[3]", "result": 8.6, "unit": "%"}, {"measurement": "EC50 at 72 h", "setting": "[7]", "result": 28, "unit": "µM"}, {"measurement": "EC50", "setting": "MOLM-13 [4]", "result": 6.6, "unit": "µM"}, {"measurement": "EC50", "setting": "MOLM-13 [5]", "result": 1.7, "unit": "µM"}, {"measurement": "IC50", "setting": "[6]", "result": 0.05, "unit": "µM"}]}
{"compound": "COC(=O)c1cc2[nH]ncc2c2c1ncc1ccccc12", "values": [{"measurement": "Activity", "setting": "[1]", "result": 21, "unit": "%"}, {"measurement": "EC50", "setting": "MOLM-13 [2]", "result": 50, "unit": "µM"}, {"measurement": "Activity", "setting": "[3]", "result": 38, "unit": "%"}, {"measurement": "EC50", "setting": "MOLM-13 [4]", "result": 61, "unit": "µM"}, {"measurement": "EC50", "setting": "MOLM-13 [5]", "result": 30, "unit": "µM"}]}
